Measurements published in patent publication US10973801B2, “Capsid assembly modulator dosing regimen” (Janssen Sciences Ireland Unlimited Company, priority 2018, dated 2021).
Several values for one entry are separate records, joined by “and”; a condition that tells them apart may be missing. Equal entries are not always repeated. Entries after “also recorded” stand apart in the source; their conditions may differ. Where two headings read alike, the source gives them in different places. Marks after values point to notes of the source that are not given here.

Legend:
[1] = Pharmacokinetics of Compound A in chronic HBV patients, 28 day treatment; assay type: in vivo, human
Excerpt: (§1) In part 2 of this study (FIG. 1, sessions 8-9), the objective was to evaluate the safety, PK, and antiviral activity of Compound A in treatment naïve, chronic hepatitis B patients over a 28-day treatment period. The patient criteria were: • HBeAg-positive or negative • Plasma HBV DNA>2.0 log 10 IU/mL • ALT/AST<2.5×ULN • METAVIR stage<F3. 1.1 Patient Baseline Characteristics
The exposure (Cmax, AUC) increased in a dose-dependent manner with time-linear PK. The pharmacokinetics of Compound A were not markedly different between healthy volunteers and patients. Mean Compound A exposures in patients with CHB could be predicted from data in healthy volunteers. Mean (±SD) exposure in the 75 mg arm was within 90% prediction interval. […] Apparent clearance was low and similar in the two dosing groups (1 and 0.9 L/h at 25 mg and 75 mg, respectively).

[2] = Adverse events over 28-day treatment in treatment naïve chronic hepatitis B patients; assay type: in vivo, human; settings: for Amylase Increased (most common AEs) / At least one AE (on-treatment, 28 days) / Headache (most common AEs) / Worst Grade 1 AEs / Worst Grade 2 AEs / Worst Grade 3 AEs: n = 8
Excerpt: as §1, with “[…] Although no patients had Grade 3 or 4 AEs on treatment, one patient had Grade 1 & 2 ALT and Grade 1 AST elevations on treatment that rose to Grade 3 & 4 ALT and Grade 3 AST elevations in follow up.” for “1.1 Patient Baseline Characteristics”

HBV RNA = HBV RNA in treatment naïve chronic hepatitis B patients; assay type: in vivo, hepatitis B virus; settings: N 8
Protocol: In part 2 of this study (FIG. 1, sessions 8-9), the objective was to evaluate the safety, PK, and antiviral activity of Compound A in treatment naïve, chronic hepatitis B patients over a 28-day treatment period. The patient criteria were: • HBeAg-positive or negative • Plasma HBV DNA>2.0 log 10 IU/mL • ALT/AST<2.5×ULN • METAVIR stage<F3. 1.1 Patient Baseline Characteristics HBV DNA was assessed for each patient weekly during this study (see FIG. 3). A mean reduction in plasma HBV DNA levels of 2.16 (±0.49 SD) log10 IU/mL (25 mg Compound A) and 2.89 (±0.48 SD) log10 IU/mL (75 mg Compound A) from baseline was observed after 28 days. Three patients dosed with 75 mg QD achieved HBV DNA below the level of quantification of the HBV DNA assay while none in the 25 mg Compound A group achieved this. A more pronounced and consistent decline in HBV DNA was observed across patients in the 75 mg group compared with the 25 mg group.

[3] = Pharmacokinetics of single ascending doses in healthy Japanese volunteers; assay type: in vivo, human; settings: for Mean CL/F (SD) / Cmax / Vd/F / half-life / Tmax: fasted (n = 6); for Cmax / Vd/F / half-life / Tmax: human, plasma, oral; for Cmax: read-out: Mean Cmax (SD); for Vd/F: read-out: Mean Vd/F (SD); for half-life: read-out: Mean t1/2 term (SD) (converted); for Tmax: read-out: Median tmax
Protocol: A double-blind, placebo-controlled study was done to assess the safety, tolerability, and pharmacokinetics (PK) of Compound A. Thirty-two healthy adult Japanese volunteers were randomized into four cohorts. The volunteers were randomized 3:1 to receive a single dose of Compound A or placebo in a fasted state (see FIG. 4). The safety, tolerability and PK plasma profiles of Compound A were assessed after each dose. Full plasma PK profiles were determined up to 28 days after each single dose of Compound A. Urinary elimination was assessed in Cohort C (see FIG. 4) for 7 day.
The PKs were dose-dependent in all four treatment cohorts. […] The inter-subject variability, expressed as % CV, was low to moderate and similar across dose levels.

[4] = Part 1: tolerability of Compound A in healthy subjects (sessions 1-7); assay type: in vivo, human; settings: single doses up to 600 mg, multiple doses 150 mg for two days then 100 mg once a day for 10 days
HBV DNA = test: Plasma HBV DNA in treatment naïve chronic hepatitis B patients; assay type: in vivo, hepatitis B virus; settings: for HBV DNA Day 29 Mean Change from Baseline: N 8; for mean reduction in plasma HBV DNA levels from baseline: after 28 days
Excerpt: Serum HBV DNA quantitation can be performed according to methods known in the art, for example, using the polymerase chain reaction (PCR)-based assay COBAS® TAQMAN® HBV Test v2.0 (Roche Diagnostics), which has been validated to quantify HBV DNA from serum samples for diverse HBV genotypes (A-H) including pre-core mutant HBV strains, with a reported lower limit of detection of 35 IU/mL and a linear dynamic range of quantitation of 1.7×10^2 to 8.5×10^8 IU/mL IU/mL, using the WHO pooled serum reference standard for quantitation.
as §1
HBV DNA was assessed for each patient weekly during this study (see FIG. 3). A mean reduction in plasma HBV DNA levels of 2.16 (±0.49 SD) log10 IU/mL (25 mg Compound A) and 2.89 (±0.48 SD) log10 IU/mL (75 mg Compound A) from baseline was observed after 28 days. Three patients dosed with 75 mg QD achieved HBV DNA below the level of quantification of the HBV DNA assay while none in the 25 mg Compound A group achieved this. A more pronounced and consistent decline in HBV DNA was observed across patients in the 75 mg group compared with the 25 mg group.

C[C@H](NS(=O)(=O)c1cc(C(=O)Nc2ccc(F)c(C#N)c2)n(C)c1)C(F)(F)F [Compound A]
Apparent clearance ([1]; 25 mg): 1 L/h
Mean dose normalized AUC 0-24 h ([1]; 25 mg): 1109 ng·h/mL
Mean dose normalized Cmax at steady state ([1]; 25 mg): 56.6 ng/mL
dose proportionality of pharmacokinetics ([1]; 25 mg and 75 mg arms): dose-proportional
Apparent clearance ([1]; 75 mg): 0.9 L/h
Mean dose normalized AUC 0-24 h ([1]; 75 mg): 1109 ng·h/mL
Mean dose normalized Cmax at steady state ([1]; 75 mg): 53.2 ng/mL
Amylase Increased (most common AEs) ([2]; 25 mg (100 mg Day 1)): 2 (25)** n (%)
At least one AE (on-treatment, 28 days) ([2]; 25 mg (100 mg Day 1)): 5 n (%) and 5 (63) n (%)
Headache (most common AEs) ([2]; 25 mg (100 mg Day 1)): 2 (25) n (%)
Worst Grade 1 AEs ([2]; 25 mg (100 mg Day 1)): 3 (38) n (%)
Worst Grade 2 AEs ([2]; 25 mg (100 mg Day 1)): 1 (13) n (%)
Worst Grade 3 AEs ([2]; 25 mg (100 mg Day 1)): 1 (13) n (%)
ECG changes and vital sign abnormalities ([2]; 25 mg and 75 mg, 28 days): no patients showed clinically significant ECG changes or persistent/worsening vital sign abnormalities
serious AEs, discontinuations, dose-limiting toxicities ([2]; 25 mg and 75 mg, 28 days): no serious adverse events (SAES) or adverse events (AEs) of clinical concern and no treatment discontinuations; also recorded: no serious AEs, no discontinuations due to AEs, and no dose-limiting toxicities
treatment-emergent Grade 3 or 4 laboratory abnormalities ([2]; 25 mg and 75 mg, 28 days): No treatment-emergent Grade 3 or 4 laboratory abnormalities were reported, with the exception of the Grade 3 amylase increase
Amylase Increased (most common AEs) ([2]; 75 mg): 0 n (%)
At least one AE (on-treatment, 28 days) ([2]; 75 mg): 4 n (%) and 4 (50) n (%)
Headache (most common AEs) ([2]; 75 mg): 0 n (%)
Worst Grade 1 AEs ([2]; 75 mg): 2 (25) n (%)
Worst Grade 2 AEs ([2]; 75 mg): 1 (13) n (%)
Worst Grade 3 AEs ([2]; 75 mg): 0 (0)* n (%)
patients who experienced at least one AE during treatment ([2]; both Compound A arms pooled (9/16)): 56%
HBV RNA Day 29 Mean Change from Baseline (HBV RNA; 25 mg QD): −2.30 log10 cp/mL
HBV RNA Day 29 Not detected (number of patients) (HBV RNA; 25 mg QD): 3
HBV RNA Day 29 Mean Change from Baseline (HBV RNA; 75 mg QD): −1.85 log10 cp/mL
HBV RNA Day 29 Not detected (number of patients) (HBV RNA; 75 mg QD): 6
Mean CL/F (SD) ([3]; 25 mg single dose): 1.03 (0.33) L/h
Mean CL/F (SD) ([3]; 160 mg single dose): 0.929 (0.24) L/h
Mean CL/F (SD) ([3]; 300 mg single dose): 0.852 (0.17) L/h
Mean CL/F (SD) ([3]; 500 mg single dose): 0.919 (0.23) L/h
dose dependence of PKs ([3]; all four treatment cohorts): dose-dependent
Cmax ([3]; 25 mg single dose): 375 ng/mL
Vd/F ([3]; 25 mg single dose): 132 L
half-life ([3]; 25 mg single dose): 106 h
Tmax ([3]; 25 mg single dose): 1.75 h
Cmax ([3]; 160 mg single dose): 296 ng/mL
Vd/F ([3]; 160 mg single dose): 126 L
half-life ([3]; 160 mg single dose): 100 h
Tmax ([3]; 160 mg single dose): 3 h
Cmax ([3]; 300 mg single dose): 308 ng/mL
Vd/F ([3]; 300 mg single dose): 1140 L
half-life ([3]; 300 mg single dose): 116 h
Tmax ([3]; 300 mg single dose): 3 h
Cmax ([3]; 500 mg single dose): 328 ng/mL
Vd/F ([3]; 500 mg single dose): 119 L
half-life ([3]; 500 mg single dose): 95.6 h
Tmax ([3]; 500 mg single dose): 1.75 h
administered dose excreted via the kidneys ([3]; single dose 300 mg, Cohort C): 18%
unchanged drug excreted in urine ([3]; single dose 300 mg, Cohort C, 7 day): 53.9 mg
tolerability [4]: well tolerated
HBV DNA Day 29 Mean Change from Baseline (HBV DNA; 25 mg QD): −2.16 log10 IU/mL
mean reduction in plasma HBV DNA levels from baseline (HBV DNA; 25 mg): 2.16 (±0.49 SD) log10 IU/mL and 2.16 (±0.49) log10 IU/mL
HBV DNA Day 29 Mean Change from Baseline (HBV DNA; 75 mg QD): −2.89 log10 IU/mL
mean reduction in plasma HBV DNA levels from baseline (HBV DNA; 75 mg): 2.89 (±0.48 SD) log10 IU/mL and 2.89 (±0.48) log10 IU/mL
